The subject of assay [1] is Acanthamoeba polyphaga (A. polyphaga). Put plainly: Growth inhibition of Acanthamoeba polyphaga by solid luliconazole crystals (1 mg added to culture). It is filed as cell-based. The note with it: 1 mg of solid crystals added after 48 hours preculture; 25° C., 72 hours. The procedure: The anti-Acanthamoeba activities of the crystals in Examples 2 to 6 were examined based on the method in Example 1. In other words, Acanthamoeba polyphaga (A. polyphaga) of which the number of the amoebae was 50,000 with respect to 4.5 mL of ATCC712 medium was dispersed and seeded in 500 μL of medium, and was preliminarily cultured at 25° C. for 48 hours. To the resultant, 1 mg of each of the crystals in Examples 2 to 6 was added to prepare a control and samples. The culture was further continued at 25° C. for 72 hours, and the number of the amoebae in the culture liquid was measured by a Neubauer counting chamber. The control, to which nothing was added, and in which the amoebae were cultured, was used. Growth inhibition rates were calculated from the counted values according to an expression of [(the number of amoebae in control−the number of amoebae in each sample)/the number of amoebae in control]×100.

Assay [2] relates to Acanthamoeba polyphaga (A. polyphaga; clinical isolate). Nature of the assay: Growth inhibition of Acanthamoeba polyphaga by luliconazole in solution (methanol specimen), amoebae counted in a Neubauer counting chamber. It is filed as cell-based. The note with it: 25° C., 72 hours. The method, then: Acanthamoeba polyphaga (A. polyphaga; clinical isolate) was cultured in an ATCC712 medium (hereinafter simply referred to as medium) at 25° C. for 1 week, and the medium was adjusted by adding a medium so that the number of the amoebae was 100,000 amoebae/mL, to make a preculture liquid. A control and samples were prepared by adding 4.3 mL of medium, 200 μL of specimen, and 500 μL of preculture liquid. The amoebae were cultured at 25° C. for 72 hours, and the number of the amoebae was counted by a Neubauer counting chamber.
Luliconazole used in the specimen was obtained as described below. A compound was synthesized according to a method described in Japanese Patent Laid-Open No. 60-218387, an ethyl acetate/normal hexane mixture (5:1) was added, and the resultant was warmed at 60° C. and dissolved under stirring. Crystals were precipitated while stirring the resultant in cooling water at 5° C., were filtered, and dried by sending air at 40° C. for 48 hours to obtain the crystals.
The specimen was prepared using methanol as a solvent so that the final concentration of luliconazole was 0, 5, 10, 20, or 40 μg/mL. The specimen in which the final concentration of luliconazole was 0 μg/mL was used as the control.
Growth inhibition rates were determined based on [(the number of amoebae in control−the number of amoebae in each sample)/the number of amoebae in control]×100. MIC and IC50 were calculated based on the growth inhibition rates by a usual method. MIC was 40 μg/mL, and IC50 was 20 μg/mL.

Where [3] appears, read: calculated from growth inhibition rates.

Converted amounts (≈) assume the structure as drawn.

With `N#C/C(=C1/SC[C@@H](c2ccc(Cl)cc2Cl)S1)n1ccnc1` [Crystal in Example 2, luliconazole], in assay [1], the “Growth Inhibition Rate (%)” value is 66.7%.

In the case of `N#C/C(=C1/SC[C@@H](c2ccc(Cl)cc2Cl)S1)n1ccnc1` [Crystal in Example 3, luliconazole], the “Growth Inhibition Rate (%)” value in assay [1] is 25.9%.

Consider `N#C/C(=C1/SC[C@@H](c2ccc(Cl)cc2Cl)S1)n1ccnc1` [Crystal in Example 4, luliconazole], for which, in assay [1], the “Growth Inhibition Rate (%)” value is reported as 69.6%.

Take `N#C/C(=C1/SC[C@@H](c2ccc(Cl)cc2Cl)S1)n1ccnc1` [Crystal in Example 5, luliconazole]: the “Growth Inhibition Rate (%)” value in assay [1] is 77.0%.

`N#C/C(=C1/SC[C@@H](c2ccc(Cl)cc2Cl)S1)n1ccnc1` [Crystal in Example 6, luliconazole]: the “Growth Inhibition Rate (%)” value in assay [1] turned out to be 54.8%.

For the molecule `N#C/C(=C1/SC[C@@H](c2ccc(Cl)cc2Cl)S1)n1ccnc1` [luliconazole], in assay [2] (setting [3]), the IC50 is 20 µg/mL (≈ 56.5 µM) and the MIC was 40 µg/mL (≈ 113 µM). Moreover, in assay [2] (luliconazole final concentration 5 μg/mL, ATCC712 medium, read-out: Inhibition Rate (%)), the inhibition at 5 µg/mL is 20%. Besides, the inhibition at 10 µg/mL in assay [2] (luliconazole final concentration 10 μg/mL, ATCC712 medium, read-out: Inhibition Rate (%)) came out at 40%. Besides, the inhibition at 20 µg/mL in assay [2] (luliconazole final concentration 20 μg/mL, ATCC712 medium, read-out: Inhibition Rate (%)) was found to be 50%. In addition, in assay [2] (luliconazole final concentration 40 μg/mL, ATCC712 medium, read-out: Inhibition Rate (%)), the inhibition at 40 µg/mL was 95%.
